Key:
PI3Kα (p110α/p85α) = PI3Kα (p110α/p85α) (Homo sapiens (Human), UniProt P42336); assay: PI3Kα enzymatic test by measuring the consumption of ATP; type: biochemical
Method in brief: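 p110α/p85α (1.7 μg/ml) with 50 μM PIP2 and 2 μM ATP in pH 7.5 Tris buffer with EGTA, MgCl2, Chaps, DTT; reaction 90 min. Remaining ATP measured by luciferin/luciferase luminescence; IC50 from threefold serial dilutions spanning at least 10 000-fold.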

Akt-pS473 in U87MG cells = settings: Homo sapiens, U-87 MG; for IC50: read-out: U87 Akt-pS473 % Inhibition or IC50, nM (IC50), U87MG cells
U87MG tumour cells = assay: Test of in vitro proliferation of U87MG tumour cells; type: cell-based; settings: Homo sapiens, U-87 MG, 72 h, U87MG cells, 72 hours; read-out: U87 Cell Proliferation IC50
Protocol: Model 4: Test of in vitro Proliferation of U87MG Tumour Cells.
The cell growth is determined with the reagent CellTiter 96 AQueous One Solution Cell Proliferation Assay from Promega (Cat. No. G3581).

[1] = biological target: mTOR (human recombinant aa mTOR 1360-2549) (Homo sapiens (Human), UniProt P42345); assay: mTOR enzymatic test by TR-FRET (phosphorylation of GFP-4EBP1); type: biochemical
Chain of mTOR (human recombinant aa mTOR 1360-2549) (P42345 1360-2549): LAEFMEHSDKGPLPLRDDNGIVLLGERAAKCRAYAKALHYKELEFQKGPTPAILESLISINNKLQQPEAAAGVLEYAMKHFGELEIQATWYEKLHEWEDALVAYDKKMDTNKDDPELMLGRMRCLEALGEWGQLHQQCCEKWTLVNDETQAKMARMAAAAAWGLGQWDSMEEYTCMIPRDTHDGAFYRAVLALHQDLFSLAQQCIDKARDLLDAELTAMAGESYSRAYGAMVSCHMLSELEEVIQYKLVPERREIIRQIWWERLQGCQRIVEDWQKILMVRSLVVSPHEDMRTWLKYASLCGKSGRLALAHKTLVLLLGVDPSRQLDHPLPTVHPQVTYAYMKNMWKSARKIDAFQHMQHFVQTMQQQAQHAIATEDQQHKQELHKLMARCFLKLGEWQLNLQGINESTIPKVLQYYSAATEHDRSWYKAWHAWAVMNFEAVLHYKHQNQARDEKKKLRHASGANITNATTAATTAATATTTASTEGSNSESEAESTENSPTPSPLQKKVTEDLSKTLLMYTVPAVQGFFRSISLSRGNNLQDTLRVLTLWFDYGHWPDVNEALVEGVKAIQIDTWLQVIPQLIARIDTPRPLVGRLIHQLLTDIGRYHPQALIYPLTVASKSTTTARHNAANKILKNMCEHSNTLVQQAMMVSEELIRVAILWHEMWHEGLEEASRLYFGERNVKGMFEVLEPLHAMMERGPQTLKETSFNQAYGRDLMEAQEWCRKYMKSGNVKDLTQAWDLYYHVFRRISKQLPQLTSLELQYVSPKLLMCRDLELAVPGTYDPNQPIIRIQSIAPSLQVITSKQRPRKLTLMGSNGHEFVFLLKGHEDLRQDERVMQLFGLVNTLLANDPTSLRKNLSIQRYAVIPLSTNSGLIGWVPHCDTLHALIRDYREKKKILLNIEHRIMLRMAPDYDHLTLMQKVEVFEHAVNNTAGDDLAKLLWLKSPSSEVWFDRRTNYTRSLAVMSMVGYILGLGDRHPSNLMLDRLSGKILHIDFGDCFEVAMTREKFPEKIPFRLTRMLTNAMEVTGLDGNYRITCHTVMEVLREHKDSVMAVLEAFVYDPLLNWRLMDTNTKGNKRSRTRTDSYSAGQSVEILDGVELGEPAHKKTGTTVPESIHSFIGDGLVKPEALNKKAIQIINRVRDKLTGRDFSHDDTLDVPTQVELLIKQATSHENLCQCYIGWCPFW
Method in brief: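 TR-FRET detection of GFP-4EBP1 phosphorylation by a terbium-labelled anti-phospho-Thr46 antibody. Kinase reaction ran 30 min at room temperature, was quenched with EDTA (10 mM final) plus Tb-antibody (2 nM final) and left 60 min. Emission at 520 and 490 nm after 340 nm excitation, reported as the 520/490 ratio.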

Chain of PI3Kα (p110α/p85α) (P42336 whole entry): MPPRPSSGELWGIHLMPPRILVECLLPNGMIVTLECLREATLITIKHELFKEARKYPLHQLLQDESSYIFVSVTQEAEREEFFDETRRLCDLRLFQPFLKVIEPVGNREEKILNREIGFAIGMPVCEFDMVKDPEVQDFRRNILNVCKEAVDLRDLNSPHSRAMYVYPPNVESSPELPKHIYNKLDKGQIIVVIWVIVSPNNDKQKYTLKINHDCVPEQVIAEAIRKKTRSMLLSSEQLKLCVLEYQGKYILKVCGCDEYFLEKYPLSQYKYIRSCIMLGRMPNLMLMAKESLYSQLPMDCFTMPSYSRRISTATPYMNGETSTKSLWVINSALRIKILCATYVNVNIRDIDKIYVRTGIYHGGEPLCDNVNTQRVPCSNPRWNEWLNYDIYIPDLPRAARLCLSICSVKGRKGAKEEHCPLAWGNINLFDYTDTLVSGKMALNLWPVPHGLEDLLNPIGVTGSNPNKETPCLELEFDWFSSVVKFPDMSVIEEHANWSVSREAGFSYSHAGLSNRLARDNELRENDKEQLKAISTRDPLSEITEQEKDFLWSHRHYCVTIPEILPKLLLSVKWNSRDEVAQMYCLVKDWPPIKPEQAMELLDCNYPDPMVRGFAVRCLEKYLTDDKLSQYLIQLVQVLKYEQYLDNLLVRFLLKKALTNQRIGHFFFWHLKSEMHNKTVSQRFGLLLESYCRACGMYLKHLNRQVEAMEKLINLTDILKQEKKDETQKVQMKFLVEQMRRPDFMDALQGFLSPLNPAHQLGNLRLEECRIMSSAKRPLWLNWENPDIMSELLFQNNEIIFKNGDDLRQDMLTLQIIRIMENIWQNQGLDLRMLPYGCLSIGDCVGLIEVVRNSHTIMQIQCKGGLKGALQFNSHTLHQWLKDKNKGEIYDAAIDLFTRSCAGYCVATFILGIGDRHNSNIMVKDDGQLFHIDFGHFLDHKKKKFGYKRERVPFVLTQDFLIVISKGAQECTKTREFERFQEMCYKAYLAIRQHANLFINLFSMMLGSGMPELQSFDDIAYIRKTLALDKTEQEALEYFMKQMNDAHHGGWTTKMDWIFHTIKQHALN
Chain of PI3Kα (p110α/p85α) (P27986 whole entry partner): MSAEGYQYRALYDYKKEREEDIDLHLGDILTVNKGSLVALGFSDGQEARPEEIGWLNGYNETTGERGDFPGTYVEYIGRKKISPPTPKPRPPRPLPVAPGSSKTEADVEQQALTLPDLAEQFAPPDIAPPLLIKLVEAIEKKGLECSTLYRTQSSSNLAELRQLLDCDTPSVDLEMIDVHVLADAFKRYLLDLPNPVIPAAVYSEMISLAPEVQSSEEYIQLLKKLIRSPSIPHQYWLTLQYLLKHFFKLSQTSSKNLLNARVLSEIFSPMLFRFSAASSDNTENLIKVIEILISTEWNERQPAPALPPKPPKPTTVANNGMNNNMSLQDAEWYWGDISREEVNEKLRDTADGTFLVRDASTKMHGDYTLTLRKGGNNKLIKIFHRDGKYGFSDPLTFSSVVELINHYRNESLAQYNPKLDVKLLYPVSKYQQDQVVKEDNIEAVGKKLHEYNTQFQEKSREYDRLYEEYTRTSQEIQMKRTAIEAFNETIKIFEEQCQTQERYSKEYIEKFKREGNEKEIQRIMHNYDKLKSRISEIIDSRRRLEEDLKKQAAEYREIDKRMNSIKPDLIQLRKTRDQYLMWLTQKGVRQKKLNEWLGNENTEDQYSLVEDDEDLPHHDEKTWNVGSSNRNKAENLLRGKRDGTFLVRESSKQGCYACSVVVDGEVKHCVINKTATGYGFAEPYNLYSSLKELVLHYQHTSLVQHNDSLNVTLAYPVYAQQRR

CCN1CC(C)(C)Oc2nc(N3C4CCC3COC4)nc(-c3ccc(NC(=O)Nc4cc(OC)ccn4)cc3)c2C1=O [Example 79, 1-{4-[6-Ethyl-8,8-dimethyl-2-(3-oxa-8-azabicyclo[3.2.1]oct-8-yl)-5-oxo-5,6,7,8-tetrahydro-9-oxa-1,3,6-triazabenzocyclohepten-4-yl]phenyl}-3-(4-methoxypyridin-2-yl)urea]
PI3Ka IC50 (PI3Kα (p110α/p85α)): >10000 nM
IC50 (Akt-pS473 in U87MG cells): 41 nM
IC50 (U87MG tumour cells): 383 nM
IC50 [1]: 53 nM

CCN1CC(C)(C)Oc2nc(N3CC4CCC(C3)O4)nc(-c3ccc(NC(=O)Nc4ccnc(N5CCN(S(C)(=O)=O)CC5)c4)c(F)c3)c2C1=O [Example 80, 1-{4-[6-Ethyl-8,8-dimethyl-2-(8-oxa-3-azabicyclo[3.2.1]oct-3-yl)-5-oxo-5,6,7,8-tetrahydro-9-oxa-1,3,6-triazabenzocyclohepten-4-yl]-2-fluorophenyl}-3-[2-(4-methanesulfonylpiperazin-1-yl)pyridin-4-yl]urea]
PI3Ka IC50 (PI3Kα (p110α/p85α)): >10000 nM
IC50 (Akt-pS473 in U87MG cells): 48 nM
IC50 (U87MG tumour cells): 151 nM
IC50 [1]: 72 nM

CCN1CC(C)(C)Oc2nc(N3CC4CCC(C3)O4)nc(-c3ccc(NC(=O)Nc4ccc(N5CCN(C(=O)OC)CC5)nc4)c(F)c3)c2C1=O [Example 81, 4-[5-(3-{4-[6-Ethyl-8,8-dimethyl-2-(8-oxa-3-azabicyclo[3.2.1]oct-3-yl)-5-oxo-5,6,7,8-tetrahydro-9-oxa-1,3,6-triazabenzocyclohepten-4-yl]-2-fluorophenyl}ureido)pyridin-2-yl]piperazine-1-carboxylic acid methyl ester]
PI3Ka IC50 (PI3Kα (p110α/p85α)): 2100 nM
IC50 (Akt-pS473 in U87MG cells): 17 nM
IC50 (U87MG tumour cells): 108 nM
IC50 [1]: 124 nM

CN1CC(C)(C)Oc2nc(N3C4CCC3COC4)nc(-c3ccc(NC(=O)Nc4ccncc4)c(F)c3)c2C1=O [Example 82, 1-{2-Fluoro-4-[6,8,8-trimethyl-2-(3-oxa-8-azabicyclo[3.2.1]oct-8-yl)-5-oxo-5,6,7,8-tetrahydro-9-oxa-1,3,6-triazabenzocyclohepten-4-yl]phenyl}-3-pyridin-4-ylurea]
PI3Ka IC50 (PI3Kα (p110α/p85α)): 2240 nM
IC50 (Akt-pS473 in U87MG cells): 13 nM
IC50 (U87MG tumour cells): 29 nM
IC50 [1]: 21 nM

CN1CC(C)(C)Oc2nc(N3CC4CCC(C3)O4)nc(-c3ccc(NC(=O)Nc4ccncc4)c(F)c3)c2C1=O [Example 83, 1-{2-Fluoro-4-[6,8,8-trimethyl-2-(8-oxa-3-azabicyclo[3.2.1]oct-3-yl)-5-oxo-5,6,7,8-tetrahydro-9-oxa-1,3,6-triazabenzocyclohepten-4-yl]phenyl}-3-pyridin-4-ylurea]
PI3Ka IC50 (PI3Kα (p110α/p85α)): 1460 nM
IC50 (Akt-pS473 in U87MG cells): 16 nM
IC50 (U87MG tumour cells): 41 nM
IC50 [1]: 20 nM

CCN1CC(C)(C)Oc2nc(N3CC4CCC(C3)O4)nc(-c3ccc(NC(=O)Nc4ccccn4)cc3F)c2C1=O [Example 84, 1-{4-[6-Ethyl-8,8-dimethyl-2-(8-oxa-3-azabicyclo[3.2.1]oct-3-yl)-5-oxo-5,6,7,8-tetrahydro-9-oxa-1,3,6-triazabenzocyclohepten-4-yl]-3-fluorophenyl}-3-pyridin-2-ylurea]
PI3Ka IC50 (PI3Kα (p110α/p85α)): >10000 nM
IC50 (Akt-pS473 in U87MG cells): 255 nM
IC50 (U87MG tumour cells): 760 nM
IC50 [1]: 23 nM

CN1CC(C)(C)Oc2nc(N3CC4CCC(C3)O4)nc(-c3ccc(NC(=O)Nc4ccncc4F)cc3)c2C1=O [Example 85, 1-(3-Fluoropyridin-4-yl)-3-{4-[6,8,8-trimethyl-2-(8-oxa-3-azabicyclo[3.2.1]oct-3-yl)-5-oxo-5,6,7,8-tetrahydro-9-oxa-1,3,6-triazabenzocyclohepten-4-yl]phenyl}urea]
PI3Ka IC50 (PI3Kα (p110α/p85α)): 1950 nM
IC50 (Akt-pS473 in U87MG cells): 28 nM
IC50 (U87MG tumour cells): 77 nM
IC50 [1]: 24 nM

CCN1CC(C)(C)Oc2nc(N3CC4CCC(C3)O4)nc(-c3ccc(NC(=O)Nc4ccnc5[nH]ccc45)c(F)c3)c2C1=O [Example 86, 1-{4-[6-Ethyl-8,8-dimethyl-2-(8-oxa-3-azabicyclo[3.2.1]oct-3-yl)-5-oxo-5,6,7,8-tetrahydro-9-oxa-1,3,6-triazabenzocyclohepten-4-yl]-2-fluorophenyl}-3-(1H-pyrrolo[2,3-b]pyridin-4-yl)urea]
PI3Ka IC50 (PI3Kα (p110α/p85α)): >10000 nM
IC50 (Akt-pS473 in U87MG cells): 144 nM
IC50 (U87MG tumour cells): 490 nM
IC50 [1]: 377 nM

C[C@@H]1COCCN1c1ccc(NC(=O)Nc2ccc(-c3nc(N4CC5CCC(C4)O5)nc4c3C(=O)N(C)CC(C)(C)O4)cc2F)cn1 [Example 87, 1-{2-Fluoro-4-[6,8,8-trimethyl-2-(8-oxa-3-azabicyclo[3.2.1]oct-3-yl)-5-oxo-5,6,7,8-tetrahydro-9-oxa-1,3,6-triazabenzocyclohepten-4-yl]phenyl}-3-[6-((R)-3-methylmorpholin-4-yl)pyridin-3-yl]urea]
PI3Ka IC50 (PI3Kα (p110α/p85α)): >10000 nM
IC50 (Akt-pS473 in U87MG cells): 20 nM
IC50 (U87MG tumour cells): 59 nM
IC50 [1]: 57 nM

CCN1CC(C)(C)Oc2nc(N3CC4CCC(C3)O4)nc(-c3ccc(NC(=O)OC[C@H](C)O)cc3)c2C1=O [Example 88, {4-[6-Ethyl-8,8-dimethyl-2-(8-oxa-3-azabicyclo[3.2.1]oct-3-yl)-5-oxo-5,6,7,8-tetrahydro-9-oxa-1,3,6-triazabenzocyclohepten-4-yl]phenyl}carbamic acid (S)-2-hydroxypropyl ester]
PI3Ka IC50 (PI3Kα (p110α/p85α)): >10000 nM
inhibition at 1 µM (Akt-pS473 in U87MG cells; read-out: U87 Akt-pS473 % Inhibition): 65%
IC50 (U87MG tumour cells): 1900 nM
IC50 [1]: 198 nM

CCN1CC(C)(C)Oc2nc(N3C4CCC3COC4)nc(-c3ccc(NC(=O)Nc4cc(OC)ccn4)cc3F)c2C1=O [Example 89, 1-{4-[6-Ethyl-8,8-dimethyl-2-(3-oxa-8-azabicyclo[3.2.1]oct-8-yl)-5-oxo-5,6,7,8-tetrahydro-9-oxa-1,3,6-triazabenzocyclohepten-4-yl]-3-fluorophenyl}-3-(4-methoxypyridin-2-yl)urea]
PI3Ka IC50 (PI3Kα (p110α/p85α)): >10000 nM
IC50 (Akt-pS473 in U87MG cells): 260 nM
IC50 (U87MG tumour cells): 221 nM
IC50 [1]: 84 nM

CCN1CC(C)(C)Oc2nc(N3CCOC[C@@H]3C)nc(-c3ccc(NC(=O)Nc4cc(C)nc(C)n4)cc3)c2C1=O [Example 91, 1-(2,6-Dimethylpyrimidin-4-yl)-3-{4-[6-ethyl-8,8-dimethyl-2-((S)-3-methylmorpholin-4-yl)-5-oxo-5,6,7,8-tetrahydro-9-oxa-1,3,6-triazabenzocyclohepten-4-yl]phenyl}urea]
PI3Ka IC50 (PI3Kα (p110α/p85α)): 4640 nM
IC50 (Akt-pS473 in U87MG cells): 47 nM
IC50 (U87MG tumour cells): 410 nM
IC50 [1]: 53 nM

CCN1CC(C)(C)Oc2nc(N3C4CCC3COC4)nc(-c3ccc(NC(=O)Nc4ccncn4)cc3)c2C1=O [Example 92, 1-{4-[6-Ethyl-8,8-dimethyl-2-(3-oxa-8-azabicyclo[3.2.1]oct-8-yl)-5-oxo-5,6,7,8-tetrahydro-9-oxa-1,3,6-triazabenzocyclohepten-4-yl]phenyl}-3-pyrimidin-4-ylurea]
PI3Ka IC50 (PI3Kα (p110α/p85α)): >10000 nM
IC50 (Akt-pS473 in U87MG cells): 12 nM
IC50 (U87MG tumour cells): 99 nM
IC50 [1]: 40 nM

CCN1CC(C)(C)Oc2nc(N3C4CCC3COC4)nc(-c3ccc(NC(=O)Nc4cc(C)nc(C)n4)cc3)c2C1=O [Example 93, 1-(2,6-Dimethylpyrimidin-4-yl)-3-{4-[6-ethyl-8,8-dimethyl-2-(3-oxa-8-azabicyclo[3.2.1]oct-8-yl)-5-oxo-5,6,7,8-tetrahydro-9-oxa-1,3,6-triazabenzocyclohepten-4-yl]phenyl}urea]
PI3Ka IC50 (PI3Kα (p110α/p85α)): >10000 nM
IC50 (Akt-pS473 in U87MG cells): 65 nM
IC50 (U87MG tumour cells): 410 nM
IC50 [1]: 72 nM

— patent US9120812B2, “Pyrimidooxazocine derivatives as mTOR-inhibitors” (SANOFI, priority 2012, dated 2015)
